Experimental data taken from patent US20250186321A1, “FORMULATION USING AMINO ACID AND CARBOXYLIC ACID, ORGANIC SALT, AND COMPOSITION COMPRISING SAME AND USE THEREOF” (MIYOSHI OIL & FAT CO., LTD., priority 2021, published 2025).

Assay: Appearance of formulation (state at 25° C.)
Type: physicochemical
Conditions: 25° C.; components (A) and (B) at the compounding molar ratio shown
Protocol: Formulations 1 to 427 shown in Tables 1A to 1D were prepared by the above-described method using the components (A) and (B) at the compounding molar ratios shown in the tables, and their states at 25° C. were observed.

Row | Compound | state at 25° C.
1 | CCCCC/C=C\C/C=C\CCCCCCCC(=O)O.CCCCC/C=C\C/C=C\CCCCCCCC(=O)O.N[C@@H](Cc1cnc[nH]1)C(=O)O [Formulation 113] | Solid
2 | N[C@@H](Cc1cnc[nH]1)C(=O)O.O=C(O)CCCCC(=O)O.O=C(O)CCCCC(=O)O [Formulation 116] | Solid
3 | N[C@@H](Cc1c[nH]cn1)C(=O)O.O=C(O)C[C@H](O)C(=O)O.O=C(O)C[C@H](O)C(=O)O [Formulation 120] | Solid
4 | N[C@@H](Cc1c[nH]cn1)C(=O)O.O=C(O)C(O)C(O)C(=O)O.O=C(O)C(O)C(O)C(=O)O [Formulation 122] | Solid
5 | N[C@@H](Cc1c[nH]cn1)C(=O)O.O=C(O)c1ccccc1.O=C(O)c1ccccc1 [Formulation 123] | Solid
6 | N[C@@H](Cc1c[nH]cn1)C(=O)O.O=C(O)/C=C/c1ccccc1.O=C(O)/C=C/c1ccccc1 [Formulation 124] | Solid
7 | N[C@@H](Cc1c[nH]cn1)C(=O)O.O=C1O[C@H]([C@@H](O)CO)C(O)=C1O.O=C1O[C@H]([C@@H](O)CO)C(O)=C1O [Formulation 125] | Solid
8 | CC(=O)O.NCC(=O)O [Formulation 128] | Solid
9 | CCC(=O)O.NCC(=O)O [Formulation 129] | Solid
10 | CCCCCC(=O)O.NCC(=O)O [Formulation 130] | Solid
11 | CCCC(=O)O.NCC(=O)O [Formulation 131] | Solid
12 | CCCCCCCC/C=C\CCCCCCCC(=O)O.NCC(=O)O [Formulation 133] | Solid
13 | CCCCC/C=C\C/C=C\CCCCCCCC(=O)O.NCC(=O)O [Formulation 134] | Solid
14 | NCC(=O)O.O=C(O)[C@H](O)[C@@H](O)[C@H](O)[C@H](O)CO [Formulation 135] | Solid
15 | CC(O)C(=O)O.NCC(=O)O (stereo not shown) [Formulation 136] | Solid
16 | NCC(=O)O.O=C(O)CCCCC(=O)O [Formulation 137] | Solid
17 | NCC(=O)O.O=C(O)CCC(=O)O [Formulation 138] | Solid
18 | NCC(=O)O.N[C@@H](CCC(=O)O)C(=O)O [Formulation 139] | Solid
19 | NCC(=O)O.O=C(O)/C=C/C(=O)O [Formulation 140] | Solid
20 | NCC(=O)O.O=C(O)C[C@H](O)C(=O)O [Formulation 141] | Solid
21 | NCC(=O)O.O=C(O)C(O)C(O)C(=O)O (stereo not shown) [Formulation 143] | Solid
22 | NCC(=O)O.O=C(O)c1ccccc1 [Formulation 144] | Solid

Row | Compound | state at 25° C.
23 | NCC(=O)O.O=C1O[C@H]([C@@H](O)CO)C(O)=C1O [Formulation 145] | Solid
24 | NCC(=O)O.O=C1O[C@H]([C@H](O)CO)C(O)=C1O [Formulation 146] | Solid
25 | C[C@H](N)C(=O)O.O=CO [Formulation 147] | Solid
26 | CC(=O)O.C[C@H](N)C(=O)O [Formulation 148] | Solid
27 | CCC(=O)O.C[C@H](N)C(=O)O [Formulation 149] | Solid
28 | CCCCCC(=O)O.C[C@H](N)C(=O)O [Formulation 150] | Solid
29 | CCCC(=O)O.C[C@H](N)C(=O)O [Formulation 151] | Solid
30 | CCCCCCCC/C=C\CCCCCCCC(=O)O.C[C@H](N)C(=O)O [Formulation 153] | Solid
31 | CCCCC/C=C\C/C=C\CCCCCCCC(=O)O.C[C@H](N)C(=O)O [Formulation 154] | Solid
32 | C[C@H](N)C(=O)O.O=C(O)C(O)C(O)C(O)C(O)CO (stereo not shown) [Formulation 155] | Solid
33 | CC(O)C(=O)O.C[C@H](N)C(=O)O (stereo not shown) [Formulation 156] | Solid
34 | C[C@H](N)C(=O)O.O=C(O)CCCCC(=O)O [Formulation 157] | Solid
35 | C[C@H](N)C(=O)O.O=C(O)CCC(=O)O [Formulation 158] | Solid
36 | C[C@H](N)C(=O)O.N[C@@H](CCC(=O)O)C(=O)O [Formulation 159] | Solid
37 | C[C@H](N)C(=O)O.O=C(O)/C=C/C(=O)O [Formulation 160] | Solid
38 | C[C@H](N)C(=O)O.O=C(O)C[C@H](O)C(=O)O [Formulation 161] | Solid
39 | C[C@H](N)C(=O)O.O=C(O)CC(O)(CC(=O)O)C(=O)O [Formulation 162] | Solid
40 | C[C@H](N)C(=O)O.O=C(O)C(O)C(O)C(=O)O (stereo not shown) [Formulation 163] | Solid
41 | C[C@H](N)C(=O)O.O=C(O)c1ccccc1 [Formulation 164] | Solid
42 | C[C@H](N)C(=O)O.O=C1O[C@H]([C@@H](O)CO)C(O)=C1O [Formulation 165] | Solid
43 | C[C@H](N)C(=O)O.O=C1O[C@H]([C@H](O)CO)C(O)=C1O [Formulation 166] | Solid
44 | NCCCC(=O)O.O=CO [Formulation 167] | Solid

Row | Compound | state at 25° C.
45 | CC(=O)O.NCCCC(=O)O [Formulation 168] | Solid
46 | CCC(=O)O.NCCCC(=O)O [Formulation 169] | Solid
47 | CCCCCC(=O)O.NCCCC(=O)O [Formulation 170] | Solid
48 | CCCC(=O)O.NCCCC(=O)O [Formulation 171] | Solid
49 | CCCCC/C=C\C/C=C\CCCCCCCC(=O)O.NCCCC(=O)O [Formulation 174] | Solid
50 | NCCCC(=O)O.O=C(O)CCCCC(=O)O [Formulation 177] | Solid
51 | NCCCC(=O)O.O=C(O)CCC(=O)O [Formulation 178] | Solid
52 | NCCCC(=O)O.N[C@@H](CCC(=O)O)C(=O)O [Formulation 179] | Solid
53 | NCCCC(=O)O.O=C(O)/C=C/C(=O)O [Formulation 180] | Solid
54 | NCCCC(=O)O.O=C(O)C[C@H](O)C(=O)O [Formulation 181] | Solid
55 | NCCCC(=O)O.O=C(O)C(O)C(O)C(=O)O (stereo not shown) [Formulation 183] | Solid
56 | NCCCC(=O)O.O=C(O)c1ccccc1 [Formulation 184] | Solid
57 | NCCCC(=O)O.O=C1O[C@H]([C@@H](O)CO)C(O)=C1O [Formulation 185] | Solid
58 | NCCCC(=O)O.O=C1O[C@H]([C@H](O)CO)C(O)=C1O [Formulation 186] | Solid
59 | CC(C)[C@H](N)C(=O)O.O=CO [Formulation 187] | Solid
60 | CC(=O)O.CC(C)[C@H](N)C(=O)O [Formulation 188] | Solid
61 | CC(C)[C@H](N)C(=O)O.CCC(=O)O [Formulation 189] | Solid
62 | CC(C)[C@H](N)C(=O)O.CCCCCC(=O)O [Formulation 190] | Solid
63 | CC(C)[C@H](N)C(=O)O.CCCC(=O)O [Formulation 191] | Solid
64 | CC(C)[C@H](N)C(=O)O.O=C(O)[C@H](O)[C@@H](O)[C@H](O)[C@H](O)CO [Formulation 192] | Solid
65 | CC(C)[C@H](N)C(=O)O.CC(O)C(=O)O [Formulation 193] | Solid
66 | CC(C)[C@H](N)C(=O)O.O=C(O)CCCCC(=O)O [Formulation 194] | Solid

Row | Compound | state at 25° C.
67 | CC(C)[C@H](N)C(=O)O.O=C(O)CCC(=O)O [Formulation 195] | Solid
68 | CC(C)[C@H](N)C(=O)O.N[C@@H](CCC(=O)O)C(=O)O [Formulation 196] | Solid
69 | CC(C)[C@H](N)C(=O)O.O=C(O)/C=C/C(=O)O [Formulation 197] | Solid
70 | CC(C)[C@H](N)C(=O)O.O=C(O)C[C@H](O)C(=O)O [Formulation 198] | Solid
71 | CC(C)[C@H](N)C(=O)O.O=C(O)CC(O)(CC(=O)O)C(=O)O [Formulation 199] | Solid
72 | CC(C)[C@H](N)C(=O)O.O=C(O)C(O)C(O)C(=O)O (stereo not shown) [Formulation 200] | Solid
73 | CC(C)[C@H](N)C(=O)O.O=C(O)c1ccccc1 [Formulation 201] | Solid
74 | CC(C)[C@H](N)C(=O)O.O=C1O[C@H]([C@@H](O)CO)C(O)=C1O [Formulation 202] | Solid
75 | CC(C)[C@H](N)C(=O)O.O=C1O[C@H]([C@H](O)CO)C(O)=C1O [Formulation 203] | Solid
76 | CC(C)C[C@H](N)C(=O)O.O=CO [Formulation 204] | Solid
77 | CC(=O)O.CC(C)C[C@H](N)C(=O)O [Formulation 205] | Solid
78 | CC(C)C[C@H](N)C(=O)O.CCC(=O)O [Formulation 206] | Solid
79 | CC(C)C[C@H](N)C(=O)O.CCCCCC(=O)O [Formulation 207] | Solid
80 | CC(C)C[C@H](N)C(=O)O.CCCC(=O)O [Formulation 208] | Solid
81 | CC(C)C[C@H](N)C(=O)O.O=C(O)[C@H](O)[C@@H](O)[C@H](O)[C@H](O)CO [Formulation 209] | Solid
82 | CC(C)C[C@H](N)C(=O)O.CC(O)C(=O)O [Formulation 210] | Solid
83 | CC(C)C[C@H](N)C(=O)O.O=C(O)CCCCC(=O)O [Formulation 211] | Solid
84 | CC(C)C[C@H](N)C(=O)O.O=C(O)CCC(=O)O [Formulation 212] | Solid
85 | CC(C)C[C@H](N)C(=O)O.N[C@@H](CCC(=O)O)C(=O)O [Formulation 213] | Solid
86 | CC(C)C[C@H](N)C(=O)O.O=C(O)/C=C/C(=O)O [Formulation 214] | Solid
87 | CC(C)C[C@H](N)C(=O)O.O=C(O)C[C@H](O)C(=O)O [Formulation 215] | Solid
88 | CC(C)C[C@H](N)C(=O)O.O=C(O)CC(O)(CC(=O)O)C(=O)O [Formulation 216] | Solid
